Measurements: PubChem BioAssay (NCI)
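In this assay, cells in 96-well plates receive the compound at five concentrations for 48 hours. Endpoints are linearly interpolated between the surrounding concentrations. TGI is the concentration that stops growth completely.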

How the values were obtained:
Experiment in all cases: DTP human tumour cell line panel, 48 h
ACHN renal = system: ACHN renal
HL-60(TB) leukemia = system: HL-60(TB) leukemia
MALME-3M melanoma = system: MALME-3M melanoma
MDA-N = system: MDA-N
NCI-H23 lung = system: NCI-H23 lung
RPMI-8226 leukemia = system: RPMI-8226 leukemia
SF-539 CNS = system: SF-539 CNS
T-47D breast = system: T-47D breast
U251 CNS = system: U251 CNS
UACC-257 melanoma = system: UACC-257 melanoma

Compound | TGI (ACHN renal) [µM] | TGI (HL-60(TB) leukemia) [µM] | TGI (MALME-3M melanoma) [µM] | TGI (MDA-N) [µM] | TGI (NCI-H23 lung) [µM] | TGI (RPMI-8226 leukemia) [µM] | TGI (SF-539 CNS) [µM] | TGI (T-47D breast) [µM] | TGI (U251 CNS) [µM] | TGI (UACC-257 melanoma) [µM]
CN1CSC(=S)N(c2cccc(C(F)(F)F)c2)C1 | 36.5 | 59 | 35.2 | 91.2 | 33.2 | 39.4 | 52 | > 100 | > 100 | 50.7
Cc1ccc2cccc(-c3cccc4ccccc34)c2n1 | > 100 | 16.3 | > 100 | 22.7 | > 100 | 40.2 | > 100 | > 100 | 29.9 | > 100
CN(CCN1CCCC1)C1CCc2cc(Cl)c(Cl)cc2C1 (stereo unspecified) | 30.5 | 37.4 | 33.6 | 26.2 | 30.1 | 55.4 | 31.4 | 22.1 | 32.6 | 32.4
O=c1ccc2ccc(S)cc2o1 | > 100 | > 100 | > 100 | > 100 | > 100 | > 100 | > 100 | > 100 | > 100 | > 100
COc1ccc(C2Oc3ccc(Cl)cc3C=C2[N+](=O)[O-])cc1 (stereo unspecified) | > 100 | > 100 | > 100 | > 100 | > 100 | > 100 |  | > 100 | > 100 | > 100
Cc1c(C)n(-c2ccccc2)c2nc(S(C)=O)nc(S(C)=O)c12 (stereo unspecified) | 18.5 | 3.39 | 4.09 | 13.6 | 29.5 | 5.28 | 14.7 | 8.62 | 21.1 | 25.9
O=C(ON=C1c2ccccc2C(Br)C(Br)c2ccccc21)c1ccccc1 (stereo unspecified) | 33 | 1.22 | 37.1 | 34.5 | 37.8 | 14.7 | 13.9 | 29.3 | 31.6 | 41.7
COc1cccc(C2c3cc4c(cc3OC(O)C2C)OCO4)c1OC (stereo unspecified) | 30.8 | 4.83 | 32.9 | 58.3 | 64 | 14.6 | 26.8 | 40.7 | 40.2 | 37.9
CCOC(=O)CSc1nc(N)c2c(-c3ccccc3)c3c(nc2n1)CCCC3 | > 100 | > 100 | > 100 | > 100 | > 100 | > 100 | > 100 | > 100 | > 100 | > 100
C[C@@H]1CC[C@@]2(C)C(C(=O)O)=CCCC2[C@@]1(C)CC(=O)c1ccoc1 (stereo partly specified) | > 25 | > 25 |  | > 25 | > 25 | > 25 | > 25 | > 25 | > 25 | > 25
O=C(O)c1nc2ccc(C(F)(F)F)cc2[nH]c1=O | > 100 | > 100 | > 100 | > 100 | > 100 | > 100 | > 100 | > 100 | > 100 | > 100
COCOc1ccc(C(=O)Oc2cccc3c2OC(C)(C)O3)c(OCOC)c1 | > 100 | 19 |  | > 100 | 26.3 | > 100 | > 100 | > 100 | > 100 | > 100
c1c[nH]c(-c2cccc3nsnc23)c1 | > 100 |  | > 100 | > 100 | > 100 | > 100 | > 100 | > 100 | > 100 | > 100
C[n+]1cc2cc(O)c(O)cc2c2ccc3cc(O)c(O)cc3c21 | > 100 |  | 12.9 | > 100 | 18.3 | > 100 | 7.77 | > 100 | 9.91 | > 100
Cn1c2ccccc2c2ccc3c(c21)C(=O)c1ccc2c4ccccc4n(C)c2c1C3=O | > 100 | > 100 | > 100 | > 100 | > 100 | > 100 | > 100 | > 100 | > 100 | > 100
CC(C)NC(=O)OCc1c(COC(=O)NC(C)C)n(C)c2c1ccc1sccc12 | > 63.8 | > 100 | 13.6 | 42.8 | 29.3 | > 58.8 | 26 | 47.2 | > 60.8 | 39.5
COc1ccc2nc(NC(=O)/C(C#N)=C/c3ccccc3)sc2c1 | > 100 | 36.7 | > 100 | > 100 | > 100 | > 84.5 | > 100 | > 100 | > 100 | > 100
O=C(CC(NC(=O)C(F)(F)F)C(=O)O)OCc1ccccc1 (stereo unspecified) | > 100 | > 100 | > 100 | > 100 | > 100 | > 100 | > 100 | > 100 | > 100 | > 100
O=c1c(F)cn2c(=O)n1CCCCCCCn1c(=O)c(F)cn(c1=O)CCCCCCC2 | > 100 | > 100 | 88.8 | > 100 | > 100 | > 100 | > 100 | > 100 | > 100 | > 100
CC(=O)c1ccc(Oc2c3ccccc3nc3ccccc23)cc1 | 15.9 | 0.463 | 27.2 | 14.2 | 56.6 | 9.63 | 5.5 | 18 | 25.9 | 15.4
O=C(/C=C/c1ccc(Cl)cc1)Oc1ccc(C=C2CCC/C(=C\c3ccc(OC(=O)/C=C/c4ccc(Cl)cc4)cc3)C2=O)cc1 | > 100 |  | > 100 | > 100 | > 100 | 97.1 | > 100 | > 100 | > 100 | > 100
O=c1[nH]c(NCc2ccncc2)nc2nc[nH]c12 | > 100 |  | > 100 | > 100 | > 100 | > 100 |  | > 100 | > 100 | > 100
Cc1nc(N)c(N2CCN(C#N)CC2)c(=O)[nH]1 | > 100 |  | > 100 | > 100 | > 100 | > 100 | > 100 | > 100 | > 100 | > 100

Compound | TGI (ACHN renal) [µM] | TGI (HL-60(TB) leukemia) [µM] | TGI (MALME-3M melanoma) [µM] | TGI (MDA-N) [µM] | TGI (NCI-H23 lung) [µM] | TGI (RPMI-8226 leukemia) [µM] | TGI (SF-539 CNS) [µM] | TGI (T-47D breast) [µM] | TGI (U251 CNS) [µM] | TGI (UACC-257 melanoma) [µM]
CCOC(=O)c1c(N2CCCC2)[nH]c(=O)c(C(c2ccc(OC)cc2)c2c(O)c(C(=O)OCC)c(N3CCCC3)[nH]c2=O)c1O | > 100 |  | > 100 | > 100 | > 100 | > 100 | > 100 | > 100 | > 100 | > 100
NC1=CC(=O)c2c(O)ccc(O)c2C1=O | 34.2 | 6.83 | 7.08 | 13.1 | 27.9 | 44.9 | 36 | 35.7 | 33.9 | 30.2
Cc1nnc2n(c1=O)CCCN2C | > 100 | > 100 | > 100 | > 100 | > 100 | > 100 | > 100 | > 100 | > 100 | 
COC(=O)/C=C(/C=C1/C(C#N)=C(N)N(c2ccc(Cl)cc2)C1(C)/C(=C\C(=O)OC)C(=O)OC)C(=O)OC (stereo unspecified) | 76.8 | > 100 | 58.8 | 30.8 | 40.5 | > 100 | 32.7 | 39.5 | 60.2 | 35.8
Cn1nc(-c2ccc(S(=O)(=O)/N=C(\NN)Nc3ccc(Cl)cc3)s2)cc1C(F)(F)F | 33.8 | 22.6 |  | 28 | 40.9 | 56 | 30 | 27.6 | 28.3 | 34
CCOC1C=CC(=O)C(CO)O1 (stereo unspecified) | 24.1 | 20.9 | 25.8 | 31.5 | 27.6 | 6 | 23.8 | 24.9 | 27.9 | 19.9
CC(=O)Nc1nc(Cl)cc(NCC2(CO)CCC2)n1 | > 100 | > 100 | > 100 | > 100 | > 100 | > 100 |  | > 100 | > 100 | > 100
[N-]=[N+]=CC(=O)C1CCCN1C(=O)c1ccccc1 (stereo unspecified) | > 10 | > 10 | > 10 | > 10 | > 10 | > 10 | > 10 | > 10 | > 10 | > 10
O=C(NCc1ccccc1)c1cc2ccccc2oc1=Nc1cccc(C(F)(F)F)c1 | > 100 | 49.9 | > 100 | > 100 | > 100 | > 100 |  | > 100 | > 100 | 84
Nc1ncnc2c1nnn2C1C=CC(CP(=O)(O)O)C1 (stereo unspecified) | > 100 | > 100 | > 100 | > 100 | > 100 | > 100 | > 100 | > 100 | > 100 | > 100
Cc1ccc2c(c1C)C(=O)C1(Cc3cc4c(cc3C1=O)CCC4)C2 (stereo unspecified) | > 100 | > 100 | > 100 | > 100 | > 100 | > 100 | > 100 | > 100 | > 100 | > 100
CN(C)CCN(c1ccccn1)c1ccccn1 | > 100 | > 100 | > 100 | > 100 | > 100 | > 100 | > 100 | > 100 | > 100 | > 100
CC(C)Oc1cccc(N2C(n3ccnc3)=Nc3ccncc3S2(=O)=O)c1 | 21.6 |  | 26.6 | 25.4 | 24.9 | 12.3 | 20.1 | 41.5 | 28.8 | 32
COc1ccc2ccc3oc(=O)c(C)cc3c2c1 | > 100 | > 100 | > 100 | > 100 | > 100 | > 100 | > 100 | > 100 | > 100 | > 100
Clc1cccc(-c2sc(-c3cccs3)cc2Cc2cccs2)c1 | > 10 | > 10 | > 10 | > 10 | > 10 | > 10 | > 10 | > 10 |  | > 10
CC1=CC2C3(C)C(C)(C(C)=CP3(=O)c3c(C(C)C)cc(C(C)C)cc3C(C)C)C1P2(=O)c1c(C(C)C)cc(C(C)C)cc1C(C)C (stereo unspecified) | 8.96 | 3.85 | 5.79 | 5.62 | 4.09 | 3.02 |  | 10.9 | 6.59 | 3.34
O=CC(I)=C(c1ccccc1)c1ccccc1 | 38.1 | 38.6 | 30.8 | 35.4 | 46.9 | > 59 | 45.3 | 34.9 | 30.2 | 42.3
CN(O)C(=O)/C=C/c1ccc(OCc2cccc(Cl)c2)cc1 | 29.9 | 52 |  | > 100 | 49 | 96.9 | > 100 | 66.5 | > 100 | > 100
CC1(C)CC(=O)C2=C(C1)C(c1ccccc1Cl)C1C(=O)CC(C)(C)CC1(O)O2 (stereo unspecified) | > 100 | > 43.7 | > 100 | > 100 | > 100 | > 100 | > 100 | > 100 | > 100 | > 95.9
CN(/N=C1\C(=O)Nc2ccccc21)c1ccccc1 | > 100 | > 100 | > 100 | > 100 | > 100 | > 100 | > 100 | > 100 | > 100 | > 100
O=C(COc1ccc(OCC(=O)N/N=C/c2ccc(-c3ccc(Cl)cc3Cl)o2)c(Cl)c1)N/N=C/c1ccc(-c2ccc(Cl)cc2Cl)o1 | > 100 | 70.6 | > 100 | > 100 | > 100 | 38.4 |  | > 100 | > 100 | > 100
O=c1oc2ccc3ccccc3c2cc1-c1cn2ccsc2n1 | 32.1 | 51.7 | 41.1 | 46.3 | 92 | 46.2 | 51.2 | 57.6 | > 100 | 66.1
